Results: patent US6664231B1, “Anti-fungal peptides” (priority 1993, dated 2003)
≈ marks a conversion by molar mass, not a printed value. Where “and” joins values, the source holds several entries; their conditions need not be identical. Equal entries are not always repeated. Where two headings read alike, the source gives them in different places.

Assays:
[1] = test system: Candida albicans SLU-1 strain; assay: Serum stability, anti-fungal activity after serum incubation by radial diffusion bioassay; type: in vitro ADME, rat or human serum
Summary of the method: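 Peptide at 1 mg/mL mixed with an equal volume of rat or human serum and held at 37° C. Samples taken at 0, 1, 2 and 4 h, extracted on C-18 solid phase, then analysed by HPLC, N-terminal sequencing and ESI/MS. Recovered peptides tested against C. albicans SLU-1 by radial diffusion.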

[2] = test system: C. albicans (CA-1, Strain SLU-1); assay: Radial diffusion assay; type: cell-based, Candida albicans; details: pmoles of peptide added to well to achieve a 30 mm^2 zone, PROBIT analysis, crude or purified (P′) peptide
Summary of the method: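 Yeast at 1×10^6 CFU/mL in agarose underlayer (3% Sabouraud, 10 mM sodium phosphate pH 7.4); 2-fold peptide dilutions in D-PBS from ~1 mg/mL loaded into wells, 3 h at 37° C, then nutrient overlayer overnight. Value: pmol/well giving 30 mm^2 net clear zone, by PROBIT regression.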

Candida albicans = assay: Radial diffusion assay, Candida species (Table 2); type: cell-based; details: higher effective concentration of agarose than Table 1
Candida tropicalis = assay: Radial diffusion assay, Candida species (Table 2); type: cell-based
Description: (§1) The anti-fungal activity of Domain III derived peptides was also evaluated in vitro against a variety of fungal species, including Candida glabrata, Candida krusei, Candida lusitaniae, Candida parapsilosis, and Candida tropicalis. For these experiments, one colony of each of the above-listed Candida strains was picked from a Sabouraud's dextrose agar (SDA) plate and inoculated into 5 mL of Sabouraud's dextrose broth (SDB, 2% dextrose and 1% neopeptone) or, for C. krusei, Yeast Malt broth (YM, Becton Dickenson, Cockeysville, Md., cat no. BL 11405) in 12 mL polyproplyene snap-cap tubes. The tube cultures were incubated overnight with shaking at 37° C.
(§2) Cultures were harvested when the OD570 of a 1:10 dilution was greater than or equal to the following values: 0.083 for Candida glabrata, 0.154 for Candida krusei, 0.117 for Candida lusitaniae, 0.076 for Candida parapsilosis, and 0.192 for Candida tropicalis. Cells were centrifuged for 7 minutes in an Eppendorf microfuge at 3,000 rpm (about 1,500 g). The cell pellet was resuspended in 1 mL PBS and approximately 1×10^7 cells in about 0.5 mL were added to 10 mL of cooled underlay agar (3% SBD, 1% agarose, 0.02% Tween 20, 10 mM sodium phosphate buffer, pH 7.4 at about 45° C.). The suspension was poured into square petri plates, allowed to solidify, and wells cut as described above.
(§3) Peptides were two-fold serially diluted with D-PBS from about 20 μL of a starting concentration of approximately 1 mg/mL. Five μL of peptide dilution were added per well and allowed to diffuse for at least about 30 minutes into the agar at […] (to allow complete diffusion). Then 10 mL of molten overlayer agarose (6% SDB, 1% agarose, 10 mM sodium phosphate buffer, pH 7.4 at about 45° C.) were added and the plates were incubated inverted at […] overnight. Plates were stained with a dilute Coomassie solution, inhibition zones were measured with calipers and net areas were calculated, then converted to pmole values by PROBIT analysis.

Candida glabrata = assay: Radial diffusion assay, Candida species (Table 2); type: cell-based
Description: as §1, §2, §3

Candida lusitaniae = assay: Radial diffusion assay, Candida species (Table 2); type: cell-based
Description: as §1, §2, §3

Candida krusei = assay: Radial diffusion assay, Candida species (Table 2); type: cell-based
Description: as §1, §2, §3

Candida parapsilosis = assay: Radial diffusion assay, Candida species (Table 2); type: cell-based
Description: as §1, §2, §3

[3] = test system: C. albicans (SLU-1 strain); assay: Survival of mice systemically infected with Candida albicans; type: in vivo, mouse; details: 1.24×10^5 C. albicans i.v.; 3 doses i.v. (Day 0, 2, 4); 10 mg/kg XMP.36, 5 mg/kg XMP.97, 10 mg/kg XMP.102, 1 mg/kg amphotericin B; FIG. 4
Description: Groups of 15 male DBA/2J mice at age 6-8 weeks (Jackson Laboratory, Bar Harbor, Me.) were inoculated with 1.24×10^5 C. albicans (SLU-1 strain as described in Example 2) by intravenous injection into the tail vein. Cells were prepared for animal injection as follows. A single colony was selected and used to inoculate a 5 mL tube of Sabouraud dextrose broth. Incubation was at 30° C. with shaking to allow aeration for a period of 15-18 hours. Four mL of the overnight culture were added to 100 mL of fresh Sabouraud dextrose broth (1:25 dilution) and incubated for 4 hours. The 100 mL culture was pelleted at 1,500×g for 5 minutes. Cells were washed twice by adding 20 mL D-PBS, vortexing and re-centrifuging. Cells were collected in one tube and a sample is diluted 1:10 to be measured by OD570 (1 OD unit=3×10^7 CFU/mL). The cells were diluted to the desired dose in D-PBS and kept at 4° C. until used. Doses were confirmed by performing serial ten-fold dilutions and plating 50 μl per dilution on Sabouraud dextrose agar. Colonies were counted the following day after overnight incubation at 37° C. A […] culture yielded approximately 1×10^9 CFU/mL.
Immediately after fungal challenge, the mice were intravenously injected via the tail vein with a 0.1 mL volume of 10 mg/kg XMP.36, 5 mg/kg XMP.97, 10 mg/kg XMP.102, 1 mg/kg amphotericin B (Sigma, St. Louis, Mo.), or phosphate buffered saline (PBS) as a control. Treatment with the same amounts of peptides, amphotericin B or PBS was repeated at Day 2 and Day 4 (except that the second dose of XMP.36 was given at a dose of 5 mg/kg). Mice were monitored twice daily for mortality until termination of the study at Day 28. […] In FIG. 4, the symbol “X” represents survival after treatment with amphotericin B; open squares, treatment with XMP.97; open circles, treatment with XMP.36; open diamonds, treatment with XMP.102; and open triangles, treatment with buffer. Statistical significance was evaluated using the Lifetest Survival Curve analysis. [Lawless, Statistical Models and Methods for Lifetime Data, John Wiley & Sons, New York (1982).] The duration and almost linear decline in survival is analogous to human opportunistic candidiasis.
In additional 3-dose studies, groups of 15 mice were injected with a fungal challenge of 0.5×10^5 Candida cells, prepared for injection as described above, followed by treatment at Day 0, Day 2 and Day 5 with a 0.1 mL volume of 10 mg/kg XMP.127, 5 mg/kg XMP.13, 5 mg/kg XMP.37, 1 mg/kg amphotericin B, or PBS as a control. […] In FIG. 5, the symbol “X” represents survival after treatment with amphotericin B; open circles, treatment with XMP.127; filled triangles, treatment with buffer; open squares, treatment with XMP.37; open triangles, treatment with XMP.13.
Further studies to determine the effectiveness of anti-fungal peptides were performed at an increased dosing regimen (6 doses rather than 3 doses as described above). Groups of 9 week-old male DBA/2J mice were inoculated with concentrations of 2.7×10^5 Candida cells (prepared as described above) by intravenous injection in the tail vein. Immediately after fungal challenge, the mice were treated with a 0.1 mL volume of 10 mg/kg XMP.284, 1 mg/kg amphotericin B or PBS as a control at Day 0, Day 2, Day 4, Day 7, Day 9 and Day 11. All amphotericin B-treated animals were protected.
Additional 6-dose experiments were conducted as described above, using inocula of 0.5-3.0×10^5 Candida cells and using 0.01, 0.05, 0.1, 0.5, 1.0 or 5.0 mg/kg doses of peptide.

[4] = test system: polyene-resistant (ATCC 38247), 5-fluorocytosine-resistant (ATCC 44373), azole-resistant (ATCC 62342), ketoconazole-resistant (ATCC 64124) C. albicans; assay: Fungicidal activity on commercially-available drug-resistant Candida strains; type: cell-based, Candida albicans; details: ATCC 38247, 44373, 62342, 64124
Description: Further experiments were performed to determine the anti-fungal activity of Domain III derived peptides on commercially-available strains of Candida considered resistant to other anti-fungal agents: polyene-resistant C. albicans (ATCC Accession No. 38247), 5-fluorocytosine-resistant C. albicans (ATCC No. 44373), azole-resistant C. albicans (ATCC No. 62342), and ketoconazole-resistant C. albicans (ATCC No. 64124).

[5] = test system: Candida albicans (SLU-1 and ATCC strains); assay: microbe, parasite or virus in culture; type: cell-based; details: Candida albicans
Description: (§4) The anti-fungal activity of Domain III derived peptides was evaluated against a variety of fungal species, including species of Candida. Cryptococcus, Fusarium, Trichophyton, and Aspergillus, by an additional assay protocol utilizing Alamar Blue. Alamar Blue is an indicator dye formulated to measure quantitatively the proliferation of a variety of human or animal cells, bacteria, or fungi. It consists of an oxidation-reduction (REDOX) indicator that yields a colorimetric change in response to metabolic activity. For these experiments, species of Candida and Cryptococcus were grown in Sabouraud's dextrose broth (SDB) overnight. Strains of filamentous fungi (Aspergilius, Fusanum, Trichophyton) were obtained by irrigation of a confluent culture from a petri dish. Cells were washed and adjusted to a concentration of 5.0×10^3/mL in fresh SDB. […] Controls included amphotericin B, fluconazole, ketoconazole and griseofulvin. Antifungal drugs were also diluted in the same manner. Assays were performed in 96-well microuiter plates. […] The wells to be plated were determined by OD590 readings. The lowest concentration of peptide which maintained the blue color (or OD reading) of the blank was chosen along with the next two higher concentrations. Plates were allowed to grow for 18-48 hours depending on the rate of growth of each fungus. Minimal fungicidal activity (MFC) was determined as a 99.9% killing of the starting inoculum.

[6] = test system: Aspergillus niger ATCC 16404; assay: microbe, parasite or virus in culture; type: cell-based; details: Aspergillus niger, ATCC16404; read-out: Minimum Fungicidal Concentration, Aspergillus niger ATCC 16404
Description: as §4

[7] = test system: Fusarium solani ATCC 36031; assay: microbe, parasite or virus in culture; type: cell-based; details: Fusarium solani, ATCC36031; read-out: Minimum Fungicidal Concentration, Fusarium solani ATCC 36031
Description: as §4

[8] = test system: Candida parapsilosis ATCC 22019; assay: microbe, parasite or virus in culture; type: cell-based; details: Lodderomyces parapsilosis, ATCC22019; read-out: Minimum Fungicidal Concentration, Candida parapsilosis ATCC 22019
Description: as §4

[9] = test system: Candida glabrata ATCC 2001; assay: microbe, parasite or virus in culture; type: cell-based; details: Nakaseomyces glabratus, ATCC2001; read-out: Minimum Fungicidal Concentration, Candida glabrata ATCC 2001
Description: as §4

Compound | Activity in Serum t ½ (hr.) [1] | C. albicans pmol/30 mm^2 zone [2] | C. albicans pmol/30 mm^2 zone ([2]; listed as XMP.337P′) | Anti-fungal activity: pmol/30 mm^2 zone, Candida albicans (Candida albicans) | Anti-fungal activity: pmol/30 mm^2 zone, Candida tropicalis (Candida tropicalis) | Anti-fungal activity: pmol/30 mm^2 zone, Candida glabrata (Candida glabrata) | Anti-fungal activity: pmol/30 mm^2 zone, Candida lusitaniae (Candida lusitaniae) | Anti-fungal activity: pmol/30 mm^2 zone, Candida krusei (Candida krusei) | Anti-fungal activity: pmol/30 mm^2 zone, Candida parapsilosis (Candida parapsilosis) | mice survived until Day 28 [3] [%] | Fungicidal activity on resistant strains [4] | MFC ([5]; ATCC10231, strain ATCC 10231, read-out: Minimum Fungicidal Concentration, Candida albicans ATCC 10231) [µg/mL] | MFC ([5]; ATCC18840, strain ATCC 18840, read-out: Minimum Fungicidal Concentration, Candida albicans ATCC 18840) [µg/mL] | MFC ([5]; ATCC26555, strain ATCC 26555, read-out: Minimum Fungicidal Concentration, Candida albicans ATCC 26555) [µg/mL] | MFC ([5]; ATCC44808, strain ATCC 44808, read-out: Minimum Fungicidal Concentration, Candida albicans ATCC 44808) [µg/mL] | MFC ([5]; ATCC90028, strain ATCC 90028, read-out: Minimum Fungicidal Concentration, Candida albicans ATCC 90028) [µg/mL] | MFC [6] [µg/mL] | MFC [7] [µg/mL] | MFC [8] [µg/mL] | MFC [9] [µg/mL]
H-HHWLIQLHH-NH2 [XMP.337] | inactive | b (No detectable activity up to 5 μg/well) | >3,350 pmol/30 mm^2 zone | b (No detectable activity up to 5 μg/well) | b (No detectable activity up to 5 μg/well) | b (No detectable activity up to 5 μg/well) | 6,928 pmol/30 mm^2 zone | 5,339 pmol/30 mm^2 zone | b (No detectable activity up to 5 μg/well) |  |  |  |  |  |  |  |  |  |  | 
H-KSKVGALIQLFHKK-NH2 [XMP.36] |  | 197 pmol/30 mm^2 zone and 231 pmol/30 mm^2 zone |  |  |  |  |  |  |  | 33 | not reduced |  |  |  |  |  |  |  |  | 
H-KSKVGVLIQLFHKK-NH2 [XMP.166] |  | 171 pmol/30 mm^2 zone |  | >3,079 pmol/30 mm^2 zone | 864 pmol/30 mm^2 zone | 2,100 pmol/30 mm^2 zone | 1,133 pmol/30 mm^2 zone | 3,240 pmol/30 mm^2 zone | 1,199 pmol/30 mm^2 zone |  | not reduced |  |  |  |  |  |  |  |  | 
CC(=O)N1CCN(c2ccc(OCC3COC(Cn4ccnc4)(c4ccc(Cl)cc4Cl)O3)cc2)CC1 (centres unmarked) [Ketoconazole, ketoconazole] |  |  |  |  |  |  |  |  |  |  |  | > 10 | > 10 | > 10 | > 10 | > 10 | > 10 | > 10 | 5 (≈ 9.41 µM) | > 10
